Measurements as given in PMC8842743 (Journal of Alzheimer's Disease Reports, 2022).

Assays:
[1] = system: Aβ; conditions: cited from earlier work
[2] = target: T1, Renin recombinant human enzyme (Homo sapiens, UniProt P00797); test: Renin FRET assay; type: biochemical
T1 sequence (P00797 67-406): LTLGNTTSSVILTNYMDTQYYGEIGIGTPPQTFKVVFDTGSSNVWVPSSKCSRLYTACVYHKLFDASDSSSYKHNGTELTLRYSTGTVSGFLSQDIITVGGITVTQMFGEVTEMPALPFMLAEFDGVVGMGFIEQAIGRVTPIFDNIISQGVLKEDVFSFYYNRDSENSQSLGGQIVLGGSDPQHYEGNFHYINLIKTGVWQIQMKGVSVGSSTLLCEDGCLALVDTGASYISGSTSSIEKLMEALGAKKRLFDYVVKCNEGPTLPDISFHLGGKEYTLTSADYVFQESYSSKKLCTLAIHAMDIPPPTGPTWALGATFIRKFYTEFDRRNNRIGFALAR

[3] = target: Porcine gastric mucosa pepsin (Sus scrofa, UniProt P00791); test: Pepsin FRET assay; type: biochemical
Sequence of Porcine gastric mucosa pepsin (P00791 60-385): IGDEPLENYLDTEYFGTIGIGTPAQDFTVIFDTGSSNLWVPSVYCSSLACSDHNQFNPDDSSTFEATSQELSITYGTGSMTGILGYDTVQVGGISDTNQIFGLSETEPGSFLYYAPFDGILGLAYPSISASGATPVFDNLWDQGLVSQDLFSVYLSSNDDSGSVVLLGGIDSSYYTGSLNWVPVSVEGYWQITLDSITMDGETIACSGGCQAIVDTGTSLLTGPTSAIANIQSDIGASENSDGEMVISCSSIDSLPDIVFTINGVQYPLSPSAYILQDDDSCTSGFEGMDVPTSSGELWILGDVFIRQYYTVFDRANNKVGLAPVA

For `CN1C(=N)N[C@](C)(c2cc(NC(=O)c3ccc(F)cn3)ccc2F)CS1(=O)=O` [verubecestat], which “Aβ reduction explored in Phase III studies” value [1] is on record?
The value was “approximately 85%”.

For `NC1=N[C@@]2(c3cc(NC(=O)c4ccc(F)cn4)ccc3F)COC[C@H]2CS1` [LY2886721, reference compound], which IC50 [2] is on record?
Its IC50 is 14.1 µM.

And the IC50 [3]?
Its IC50 is 77.4 µM.
